Measurements taken from patent US6514538B1, “External preparations for skin whitening” (Shiseido Company, Ltd., priority 1999, dated 2003).

Test system: skin of an inner lateral part of the upper arm of testees exposed to summer sunlight
Assay: Whitening effect testing (lotion on sun-exposed skin of testees)
Format: in vivo, human
Settings: blend ratio 1.0 wt %, applied twice a day for 4 weeks
Protocol: 66 testees were exposed to summer sunlight for 4 hours (2 hours a day for 2 days) and the skin of an inner lateral part of their upper arm was used as the subject of the test. […] The panel was divided into 11 groups with 6 persons in each group. Testing was conducted using lotion with the following formulas. [table] The water phase and the alcohol phase were prepared separately and then solubilized. The hypochromic effect after the application was evaluated based on the criteria below. ⊚: Very effective or effective on 80% or more of the testees ◯: Very effective or effective on 50% to less than 80% of the testees Δ: Very effective or effective on 30% to less than 50% testees ×: Very effective or effective on less than 30% of the testees Samples were prepared with the blend compositions described in the aforementioned test method, and the drugs listed in Table 2 were used to compare the whitening effect.

## Oc1ccc(O)cc1 [Hydroquinone]
  Effect (hypochromic effect after the application): Δ (Very effective or effective on 30% to less than 50% testees)
